Measurements: ChEMBL document CHEMBL1201862, “PubChem BioAssay data set” (2004)
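Growth conditions: 96-well plates. Treatment: test compound, 48 hours, 5 concentrations. Analysis: linear interpolation between bracketing concentrations; unreached endpoints set to highest concentration. At the GI50, growth is halved.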 The source made the active and inactive calls. No stated cut-off is given here; in the data, active = GI50 up to about 1.1 µM and inactive = higher.

Experiments:
Assay in all cases: NCI-60 cell line screen, 48 h
786-0 = tested on: 786-0
SNB-78 = tested on: SNB-78
SK-OV-3 = tested on: SK-OV-3
Hs-578T = tested on: Hs-578T
OVCAR-5 = tested on: OVCAR-5
U-251 = tested on: U-251
MDA-MB-435 = tested on: MDA-MB-435
HOP-18 = tested on: HOP-18
LOX IMVI = tested on: LOX IMVI
XF498 = tested on: XF498
SK-MEL-5 = tested on: SK-MEL-5
SNB-75 = tested on: SNB-75
OVCAR-4 = tested on: OVCAR-4
DU-145 = tested on: DU-145
M19-MEL = tested on: M19-MEL
PC-3 = tested on: PC-3
UACC-62 = tested on: UACC-62
IGROV-1 = tested on: IGROV-1
SW-620 = tested on: SW-620
HCT-116 = tested on: HCT-116
RXF 393 = tested on: RXF 393
T47D = tested on: T47D
SN12C = tested on: SN12C
DLD-1 = tested on: DLD-1
BT-549 = tested on: BT-549
UACC-257 = tested on: UACC-257
K562 = tested on: K562
NCI-H522 = tested on: NCI-H522
SK-MEL-28 = tested on: SK-MEL-28
OVCAR-8 = tested on: OVCAR-8
MDA-N = tested on: MDA-N
M14 = tested on: M14
A498 = tested on: A498
NCI/ADR-RES = tested on: NCI/ADR-RES
MCF7 = tested on: MCF7
HCT-15 = tested on: HCT-15
HOP-62 = tested on: HOP-62
NCI-H226 = tested on: NCI-H226
KM12 = tested on: KM12
RPMI-8226 = tested on: RPMI-8226
MDA-MB-231 = tested on: MDA-MB-231
Malme-3M = tested on: Malme-3M
SK-MEL-2 = tested on: SK-MEL-2
DMS-114 = tested on: DMS-114
EKVX = tested on: EKVX
SF-539 = tested on: SF-539
TK-10 = tested on: TK-10
UO-31 = tested on: UO-31
NCI-H23 = tested on: NCI-H23
HCC 2998 = tested on: HCC 2998
MOLT-4 = tested on: MOLT-4
SR = tested on: SR
SNB-19 = tested on: SNB-19
ACHN = tested on: ACHN
A549 = tested on: A549
DMS-273 = tested on: DMS-273
KM-20L2 = tested on: KM-20L2
COLO 205 = tested on: COLO 205
HOP-92 = tested on: HOP-92
HT-29 = tested on: HT-29

In the case of `Cc1c2cnccc2c(C)c2c1c1ccccc1n2CCCN`, the GI50 (786-0) is reported as 66.7 nM (active), the GI50 (SNB-78) is reported as 760 nM (active) and the GI50 (SK-OV-3) is reported as 740 nM (active). For the same molecule, the GI50 (Hs-578T) was 374 nM (active), the GI50 (OVCAR-5) was 667 nM (active) and the GI50 (U-251) was 258 nM (active). For the same molecule, the GI50 (MDA-MB-435) was 129 nM (active), the GI50 (HOP-18) was 492 nM (active) and the GI50 (LOX IMVI) was 109 nM (active). For the same molecule, the GI50 (XF498) was 713 nM (active), the GI50 (SK-MEL-5) was 755 nM (active) and the GI50 (SNB-75) was 736 nM (active). For the same molecule, the GI50 (OVCAR-4) was 140 nM (active), the GI50 (DU-145) was 104 nM (active) and the GI50 (M19-MEL) was 262 nM (active). The GI50 (PC-3) was 121 nM (active), the GI50 (UACC-62) was 693 nM (active) and the GI50 (IGROV-1) was 506 nM (active). For the same molecule, the GI50 (SW-620) was 78.7 nM (active), the GI50 (HCT-116) was 92.9 nM (active) and the GI50 (RXF 393) was 301 nM (active). The GI50 (T47D) was 526 nM (active), the GI50 (SN12C) was 401 nM (active) and the GI50 (DLD-1) was 116 nM (active). The GI50 (BT-549) was 1460 nM (inactive), the GI50 (UACC-257) was 1090 nM (active) and the GI50 (K562) was 138 nM (active). The GI50 (NCI-H522) was 447 nM (active), the GI50 (SK-MEL-28) was 857 nM (active) and the GI50 (OVCAR-8) was 259 nM (active). For the same molecule, the GI50 (MDA-N) was 226 nM (active), the GI50 (M14) was 276 nM (active) and the GI50 (A498) was 871 nM (active). The GI50 (NCI/ADR-RES) was 299 nM (active), the GI50 (MCF7) was 282 nM (active) and the GI50 (HCT-15) was 169 nM. The GI50 (HOP-62) was 637 nM (active), the GI50 (NCI-H226) was 873 nM (active) and the GI50 (KM12) was 137 nM (active). For the same molecule, the GI50 (RPMI-8226) was 153 nM (active), the GI50 (MDA-MB-231) was 171 nM (active) and the GI50 (Malme-3M) was 982 nM (active). For the same molecule, the GI50 (SK-MEL-2) was 721 nM (active), the GI50 (DMS-114) was 310 nM (active) and the GI50 (EKVX) was 525 nM (active). For the same molecule, the GI50 (SF-539) was 582 nM (active), the GI50 (TK-10) was 326 nM (active) and the GI50 (UO-31) was 830 nM (active). The GI50 (NCI-H23) was 474 nM (active), the GI50 (HCC 2998) was 615 nM (active) and the GI50 (MOLT-4) was 84.3 nM (active). The GI50 (SR) was < 10 nM (active), the GI50 (SNB-19) was 424 nM (active) and the GI50 (ACHN) was 243 nM (active). For the same molecule, the GI50 (A549) was 408 nM (active), the GI50 (DMS-273) was 133 nM (active) and the GI50 (KM-20L2) was 183 nM (active). For the same molecule, the GI50 (COLO 205) was 222 nM (active), the GI50 (HOP-92) was 281 nM (active) and the GI50 (HT-29) was 206 nM (active).
